# Data from patent publication US4356183A, “Antihypertensive 4-thiazolidinecarboxylic acids (pyridyl derivatives)” (Santen Pharmaceutical Co., Ltd., priority 1978, dated 1982).
# What was measured:
# [1] = system: contractile response to bradykinin (isolated guinea pig ileum); assay: Augmentation of contractile response of isolated guinea pig ileum to bradykinin; type: cell-based; settings: Cavia porcellus, bradykinin 0.005 μg/ml; compound added 5 min before; 30° C.; read-out: Bradykinin AC50 (50% augmentation of bradykinin activity inducing the contraction of guinea pig ileum)
# [2] = system: contractile response of isolated guinea pig ileum to angiotensin I; assay: Inhibition of contractile response of isolated guinea pig ileum to angiotensin I; type: cell-based; settings: Cavia porcellus, angiotensin I 0.1 μg/ml; compound added 5 min before; 30° C.; read-out: Angiotensin I IC50 (50% inhibition of angiotensin I activity inducing the contraction of guinea pig ileum)
# [3] = system: pressor response to angiotensin I; assay: Inhibition of pressor response to angiotensin I in rats after oral administration; type: in vivo, rat (male Wistar); settings: angiotensin I 300 ng/kg i.v.; for Inhibition (%) of pressor response to angiotensin I, 5 min / Inhibition (%) of pressor response to angiotensin I, 15 min / Inhibition (%) of pressor response to angiotensin I, 25 min / Inhibition (%) of pressor response to angiotensin I, 35 min / Inhibition (%) of pressor response to angiotensin I, 45 min / Inhibition (%) of pressor response to angiotensin I, 55 min / Inhibition (%) of pressor response to angiotensin I, 65 min / Inhibition (%) of pressor response to angiotensin I, 75 min / Inhibition (%) of pressor response to angiotensin I, 85 min: dose: 3, 45, 49 1.8 mg/kg, 4, 46 1.3, 50 1.4, 76 2.0, 77 1.5; for Inhibition (%) of pressor response to angiotensin I, 95 min: dose: 45, 49 1.8 mg/kg, 4, 46 1.3, 50 1.4, 76 2.0, 77 1.5; for Inhibition (%) of pressor response to angiotensin I, 105 min / Inhibition (%) of pressor response to angiotensin I, 115 min: dose: 45, 49 1.8 mg/kg, 46 1.3, 50 1.4, 76 2.0, 77 1.5
IC50 [2] [nM],SMILES,AC50 [1] [nM],"Inhibition (%) of pressor response to angiotensin I, 5 min [3] [%]","Inhibition (%) of pressor response to angiotensin I, 15 min [3] [%]","Inhibition (%) of pressor response to angiotensin I, 25 min [3] [%]","Inhibition (%) of pressor response to angiotensin I, 35 min [3] [%]","Inhibition (%) of pressor response to angiotensin I, 45 min [3] [%]","Inhibition (%) of pressor response to angiotensin I, 55 min [3] [%]","Inhibition (%) of pressor response to angiotensin I, 65 min [3] [%]","Inhibition (%) of pressor response to angiotensin I, 75 min [3] [%]","Inhibition (%) of pressor response to angiotensin I, 85 min [3] [%]","Inhibition (%) of pressor response to angiotensin I, 95 min [3] [%]","Inhibition (%) of pressor response to angiotensin I, 105 min [3] [%]","Inhibition (%) of pressor response to angiotensin I, 115 min [3] [%]"
56,C[C@H](CS)C(=O)N1C(c2ccccc2O)SC[C@H]1C(=O)O (stereo partly shown) [Compound 50],0.7,11.1,22.7,37.6,43.9,52.6,31.7,28.1,30.5,24.3,21.1,21.7,21.5
120,COc1ccc(C2SC[C@@H](C(=O)O)N2C(=O)[C@H](C)CS)c(O)c1 (stereo partly shown) [Compound 77],1.3,35.0,45.0,54.2,50.8,57.2,49.2,47.8,34.8,31.7,24.2,18.7,6.7
